Measured values published in ChEMBL document CHEMBL1136364, “Synthesis and antimalarial activity of 2-methoxyprop-2-yl peroxides derivatives” (Bioorg Med Chem Lett, 2003).

System: Plasmodium falciparum
Test: In vitro antimalarial activity against Plasmodium falciparum FCR3
Assay type: functional, organism-based

In order of falling IC50:
1. COC(C)(C)OOCCCC#N  12800 nM
2. CCOC(=O)CCCOOC(C)(C)OC  6950 nM
3. COCCOOC(C)(C)OC  3200 nM
4. CCCCCCCCOOC(C)(C)OC  2600 nM
5. COC(C)(C)OOCCC(C)C  1650 nM
6. CCCCCCOOC(C)(C)OC  1550 nM
7. CCCCCCCCCCCCCCCCCCOOC(C)(C)OC  1330 nM
8. COC(C)(C)OOCCCOc1ccccc1  870 nM
9. CCCCCCCOOC(C)(C)OC  800 nM
10. CCCCCCCCCCCCOOC(C)(C)OC  670 nM
11. COC(C)(C)OOCCCc1ccccc1  660 nM
12. COC(C)(C)OOCCCC1=CC[C@H]2C[C@@H]1C2(C)C  600 nM
13. COC(C)(C)OOCCc1ccccc1  520 nM
14. COC(C)(C)OOCCCCC1=CC[C@H]2C[C@@H]1C2(C)C  480 nM
15. CCCCCCCCCCCCCCCCOOC(C)(C)OC  440 nM
16. COC(C)(C)OOCCC1=CC[C@H]2C[C@@H]1C2(C)C  370 nM
17. C[C@@H]1CC[C@H]2[C@@H](C)C(=O)O[C@@H]3O[C@@]4(C)CC[C@@H]1[C@]32OO4 [ARTEMISININ]  55 nM
18. CO[C@H]1O[C@@H]2O[C@@]3(C)CC[C@H]4[C@H](C)CC[C@@H]([C@H]1C)[C@@]24OO3 [ARTEMETHER]  14 nM
